Results as given in US6365621B1, “Remedies or preventives for intractable epilepsy” (Pharmaceutical Co., Ltd., priority 1998, dated 2002).
Where “and” joins values, the source holds several entries; their conditions need not be identical. Equal values may be shown once.

What was measured:
[1] = test system: kainate-induced cortical focal seizures; assay: Local cerebral glucose metabolism during kainate-induced cortical focal seizures; type: in vivo, rat; design: key to Change in local cerebral glucose metabolism rate: →: no change; →↓: decreased in a low degree; ↓: decreased in a moderate degree; ↓↓: decreased in a high degree; conditions: for Change in local cerebral glucose metabolism rate: 100 mg/kg i.v.
Description: [Method] A cannula was set in the left sensorimotor area of rats, and kinic acid was injected so as to induce seizures through the same manner as described in the experiment of I-1. Subsequently, a nefiracetam solution (100 mg/kg) was intravenously injected into each rat. After 60 minutes, [^14C] deoxyglucose was intravenously injected, and autoradiograms were produced through the same procedure as described in the experiment of I-2. A glucose utilization rate of each intracerabral structure was compared with that of the control group.

[2] = test system: kainate-induced cortical focal seizures; assay: Kainate-induced cortical focal seizures: behavior and electroencephalogram; type: in vivo, rat; conditions: 100 mg/kg i.v. For Decrease of Spikes: key: (+): effective; (−): ineffective. For Sedative action: key: (+): effective; (−): ineffective. For Spikes after 24 hours: key: (+): effective; (−): ineffective.
Description: [Method for measuring an electrophysiological effect] A stereotaxic operation was performed through the same manner as described in I-1 by use of Wistar male rats. A cannula was inserted in the left sensorimotor area for injection of kainic acid, and the cannula was simultaneously used as an electrode. A bipolar depth electrode was set in the bilateral caudatum, and screw electrodes were set in the right sensorimotor area, frontal sinus, and occipital bone. Seven days after operation, 1 μL of kainic acid solution (2 mg/mL) was injected so as to induce cortical focal seizures. After elapse of 1-2 hours from the injection of kainic acid, the same nefiracetam solution as described in I-1 (100 mg/kg) was intravenously injected, and behavior and electroencephalograms were recorded by use of a video electroencephalogram recorder. Suppression of seizures just after the administration of nefiracetam, changes in electroencephalograms, occurrence of seizures thereafter, and electroencephalogram observations were compared with those of the control group.

## Cc1cccc(C)c1NC(=O)CN1CCCC1=O [nefiracetam, N-(2,6-dimethylphenyl)-2-(2-oxo-1-pyrrolidinyl)acetamide]
[1]; 100 mg/kg i.v. during seizures
  Hypermetabolism in non-focal sensorimotor area, caudatum-putamen, thalamus and hippocampus in both sides: hypermetabolism is suppressed remarkably
[1]; Amygdala, focal side
  Change in local cerebral glucose metabolism rate: →↓
[1]; Amygdala, non-focal side
  Change in local cerebral glucose metabolism rate: →↓
[1]; Brain stem reticular formation, focal side
  Change in local cerebral glucose metabolism rate: →↓
[1]; Brain stem reticular formation, non-focal side
  Change in local cerebral glucose metabolism rate: →↓
[1]; Candatum-putamen, focal side
  Change in local cerebral glucose metabolism rate: ↓
[1]; Candatum-putamen, non-focal side
  Change in local cerebral glucose metabolism rate: ↓↓
[1]; Cerebellar cortex, focal side
  Change in local cerebral glucose metabolism rate: →
[1]; Cerebellar cortex, non-focal side
  Change in local cerebral glucose metabolism rate: →
[1]; Corpus callosum, focal side
  Change in local cerebral glucose metabolism rate: →
[1]; Corpus callosum, non-focal side
  Change in local cerebral glucose metabolism rate: →
[1]; Frontal lobe cortex, focal side
  Change in local cerebral glucose metabolism rate: →↓
[1]; Frontal lobe cortex, non-focal side
  Change in local cerebral glucose metabolism rate: ↓
[1]; Hypothalamaus, focal side
  Change in local cerebral glucose metabolism rate: ↓
[1]; Hypothalamaus, non-focal side
  Change in local cerebral glucose metabolism rate: ↓
[1]; Occipital lobe cortex, focal side
  Change in local cerebral glucose metabolism rate: →↓
[1]; Occipital lobe cortex, non-focal side
  Change in local cerebral glucose metabolism rate: ↓
[1]; Parietal lobe cortex, focal side
  Change in local cerebral glucose metabolism rate: ↓
[1]; Parietal lobe cortex, non-focal side
  Change in local cerebral glucose metabolism rate: ↓↓
[1]; Sensorimotor area cortex, focal side
  Change in local cerebral glucose metabolism rate: →↓
[1]; Sensorimotor area cortex, non-focal side
  Change in local cerebral glucose metabolism rate: ↓
[1]; Septal area, focal side
  Change in local cerebral glucose metabolism rate: →↓
[1]; Septal area, non-focal side
  Change in local cerebral glucose metabolism rate: →↓
[1]; Substantia nigra, focal side
  Change in local cerebral glucose metabolism rate: →↓
[1]; Substantia nigra, non-focal side
  Change in local cerebral glucose metabolism rate: →↓
[1]; Teniporal lobe cortex, focal side
  Change in local cerebral glucose metabolism rate: →↓
[1]; Teniporal lobe cortex, non-focal side
  Change in local cerebral glucose metabolism rate: ↓
[1]; Thalamus, focal side
  Change in local cerebral glucose metabolism rate: →↓
[1]; Thalamus, non-focal side
  Change in local cerebral glucose metabolism rate: ↓
[1]; hippocampus, focal side
  Change in local cerebral glucose metabolism rate: ↓↓
[1]; hippocampus, non-focal side
  Change in local cerebral glucose metabolism rate: ↓↓
[2]
  Seizures after awakening: seizures did not appear after awakening
  Seizures after intravenous injection during status epilepticus: the seizures disappeared immediately
  Time to awakening from sedation: ≤ 60 min
[2]; individual rats
  Decrease of Spikes: +
  Disappear of seizures: +
  Reappear of seizures: −
  Sedative action: +
  Spikes after 24 hours: − and + (2×)
